Results as given in patent publication US7179446B2, “Simultaneous imaging of cardiac perfusion and a vitronectin receptor targeted imaging agent” (Bristol-Myers Squibb Pharma Company, priority 2000, dated 2007).

System: areas of endothelial damage, vulnerable plaque or angiogenesis in the heart
Test: Simultaneous imaging of In-111 labeled vitronectin antagonist compound and Tc99m cardiac perfusion agent (Example 67)
Assay type: in vivo
Conditions: human, 10–40 mCi, approximately 0.5 to 6 hours following injection
Description: The compound of Examples 54, 55 or 56 is administered to a human at a level of ˜1–10 mCi of ^111In before, together with, or after the adminstration of a ^99mTc cardiac perfusion imaging agent (e.g. 10–40 mCi of ^99mTc-Sestamibi). […] The simultaneous imaging of the In-111 labeled vitronectin antagonist compound and the Tc99m cardiac perfusion agent is carried out by a method such as that reported by White (White, S A, Mueller, D H, Smith H E, et al. J Nucl Med Tech 1984, 12: 124–125) or Hillel (Hillel P G, Tindale W B, Taylor C J, et al. Nucl Med Conmun 1998, 19, 761–769).

SMILES: [C-]#[N+]CC(C)(C)OC.[C-]#[N+]CC(C)(C)OC.[C-]#[N+]CC(C)(C)OC.[C-]#[N+]CC(C)(C)OC.[C-]#[N+]CC(C)(C)OC.[C-]#[N+]CC(C)(C)OC.[Tc] [^99mTc-Sestamibi, hexakis methoxyisobutyl isonitrile Technetium(I)]
- distribution of the ^99mTc perfusion agent: distributed in the myocardium in relation to regional myocardial blood flow
